{"source": "patent US5126336A", "about": "“Antibiotic C-3 catechol-substituted cephalosporin compounds, compositions and method of use thereof” (Bristol-Myers Squibb Company, priority 1990, dated 1992)", "experiment_in_all_cases": "MIC, agar dilution", "assay_type_in_all_cases": "cell-based", "key": {"B. subtilis PCI 219": {"system": "B. subtilis PCI 219", "conditions": "Bacillus subtilis, PCI219, Mueller-Hinton agar pH 7.2, 32° C., 18 hr, 10^6 cells/ml", "description": "(§1) Minimum inhibitory concentrations (MICs) of the present series of cephalosporins were determined against 32 strains of test organisms by two-fold serial agar dilution method in Mueller-Hinton agar. Geometric means of MICs were calculated against six groups of the test organisms which are classified as follows and summarized in Table 1.\n(§2) Medium; MuellerHinton agar (pH = 7.2)\n(§3) Incubation temperature: 32° C., 18 hr\n(§4) Inoculum size; 10^6 cells/ml"}, "C. freundii GN 7391": {"system": "C. freundii GN 7391", "conditions": "Citrobacter freundii, GN7391, Mueller-Hinton agar pH 7.2, 32° C., 18 hr, 10^6 cells/ml", "description": "as §1, §2, §3, §4"}, "C. terrigena IFO 12685": {"system": "C. terrigena IFO 12685", "conditions": "Mueller-Hinton agar pH 7.2, 32° C., 18 hr, 10^6 cells/ml", "description": "as §1, §2, §3, §4"}, "E. cloacae IPM-12": {"system": "E. cloacae IPM-12", "conditions": "Enterobacter cloacae, IPM12, Mueller-Hinton agar pH 7.2, 32° C., 18 hr, 10^6 cells/ml", "description": "as §1, §2, §3, §4"}, "E. coli 255": {"system": "E. coli 255", "conditions": "Escherichia coli, Mueller-Hinton agar pH 7.2, 32° C., 18 hr, 10^6 cells/ml", "description": "as §1, §2, §3, §4"}, "E. faecalis A9808": {"system": "E. faecalis A9808", "conditions": "Enterococcus faecalis, Mueller-Hinton agar pH 7.2, 32° C., 18 hr, 10^6 cells/ml", "description": "as §1, §2, §3, §4"}, "E. faecium A24817": {"system": "E. faecium A24817", "conditions": "Enterococcus faecium, Mueller-Hinton agar pH 7.2, 32° C., 18 hr, 10^6 cells/ml", "description": "as §1, §2, §3, §4"}, "K. pneumoniae PCI 602": {"system": "K. pneumoniae PCI 602", "conditions": "Klebsiella pneumoniae, PCI602, Mueller-Hinton agar pH 7.2, 32° C., 18 hr, 10^6 cells/ml", "description": "as §1, §2, §3, §4"}, "M. luteus 1001": {"system": "M. luteus 1001", "conditions": "Micrococcus luteus, Mueller-Hinton agar pH 7.2, 32° C., 18 hr, 10^6 cells/ml", "description": "as §1, §2, §3, §4"}, "M. morgani 1510/9": {"system": "M. morgani 1510/9", "conditions": "Mueller-Hinton agar pH 7.2, 32° C., 18 hr, 10^6 cells/ml", "description": "as §1, §2, §3, §4"}, "M. morgani 1510": {"system": "M. morgani 1510", "conditions": "Mueller-Hinton agar pH 7.2, 32° C., 18 hr, 10^6 cells/ml", "description": "as §1, §2, §3, §4"}, "P. aeruginosa A20599": {"system": "P. aeruginosa A20599", "conditions": "Pseudomonas aeruginosa, Mueller-Hinton agar pH 7.2, 32° C., 18 hr, 10^6 cells/ml", "description": "as §1, §2, §3, §4"}, "P. aeruginosa IPM-8": {"system": "P. aeruginosa IPM-8", "conditions": "Pseudomonas aeruginosa, IPM8, Mueller-Hinton agar pH 7.2, 32° C., 18 hr, 10^6 cells/ml", "description": "as §1, §2, §3, §4"}, "P. aeruginosa IPM-9": {"system": "P. aeruginosa IPM-9", "conditions": "Pseudomonas aeruginosa, IPM9, Mueller-Hinton agar pH 7.2, 32° C., 18 hr, 10^6 cells/ml", "description": "as §1, §2, §3, §4"}, "P. aeruginosa KKA 19": {"system": "P. aeruginosa KKA 19", "conditions": "Pseudomonas aeruginosa, KKA19, Mueller-Hinton agar pH 7.2, 32° C., 18 hr, 10^6 cells/ml", "description": "as §1, §2, §3, §4"}, "P. cepacia A21213": {"system": "P. cepacia A21213", "conditions": "Burkholderia cepacia, Mueller-Hinton agar pH 7.2, 32° C., 18 hr, 10^6 cells/ml", "description": "as §1, §2, §3, §4"}, "P. cepacia No. 651": {"system": "P. cepacia No. 651", "conditions": "Burkholderia cepacia, Mueller-Hinton agar pH 7.2, 32° C., 18 hr, 10^6 cells/ml", "description": "as §1, §2, §3, §4"}, "P. mirabilis IFO-2849": {"system": "P. mirabilis IFO-2849", "conditions": "Proteus mirabilis, IFO2849, Mueller-Hinton agar pH 7.2, 32° C., 18 hr, 10^6 cells/ml", "description": "as §1, §2, §3, §4"}, "P. rettgeri IPM-14": {"system": "P. rettgeri IPM-14", "conditions": "Providencia rettgeri, IPM14, Mueller-Hinton agar pH 7.2, 32° C., 18 hr, 10^6 cells/ml", "description": "as §1, §2, §3, §4"}, "P. vulgaris IPM-13": {"system": "P. vulgaris IPM-13", "conditions": "Proteus vulgaris, IPM13, Mueller-Hinton agar pH 7.2, 32° C., 18 hr, 10^6 cells/ml", "description": "as §1, §2, §3, §4"}, "S. aureus 209P": {"system": "S. aureus 209P", "conditions": "Staphylococcus aureus; S. aureus 209P; Mueller-Hinton agar pH 7.2; 32° C., 18 hr; 10^6 cells/ml; read-out: MIC", "description": "as §1, §2, §3, §4"}, "S. aureus 4-1015 (MRSA)": {"system": "S. aureus 4-1015 (MRSA)", "conditions": "Staphylococcus aureus, Mueller-Hinton agar pH 7.2, 32° C., 18 hr, 10^6 cells/ml", "description": "as §1, §2, §3, §4"}, "S. aureus IPM-24 (MRSA)": {"system": "S. aureus IPM-24 (MRSA)", "conditions": "Staphylococcus aureus, Mueller-Hinton agar pH 7.2, 32° C., 18 hr, 10^6 cells/ml", "description": "as §1, §2, §3, §4"}, "S. epidermidis 11-1230": {"system": "S. epidermidis 11-1230", "conditions": "Staphylococcus epidermidis, 111230, Mueller-Hinton agar pH 7.2, 32° C., 18 hr, 10^6 cells/ml", "description": "as §1, §2, §3, §4"}, "S. marcescens IPM-15": {"system": "S. marcescens IPM-15", "conditions": "Serratia marcescens, IPM15, Mueller-Hinton agar pH 7.2, 32° C., 18 hr, 10^6 cells/ml", "description": "as §1, §2, §3, §4"}, "S. marcescens IPM-16": {"system": "S. marcescens IPM-16", "conditions": "Serratia marcescens, IPM16, Mueller-Hinton agar pH 7.2, 32° C., 18 hr, 10^6 cells/ml", "description": "as §1, §2, §3, §4"}, "X. maltophilia GN 12873": {"system": "X. maltophilia GN 12873", "conditions": "Stenotrophomonas maltophilia, GN12873, Mueller-Hinton agar pH 7.2, 32° C., 18 hr, 10^6 cells/ml", "description": "as §1, §2, §3, §4"}, "X. maltophilia No. 661": {"system": "X. maltophilia No. 661", "conditions": "Stenotrophomonas maltophilia, Mueller-Hinton agar pH 7.2, 32° C., 18 hr, 10^6 cells/ml", "description": "as §1, §2, §3, §4"}, "E. coli Juhl A15119": {"system": "E. coli Juhl A15119", "conditions": "Escherichia coli, JUHLA15119; E. coli Juhl A15119; Mueller-Hinton agar pH 7.2; 32° C., 18 hr; 10^6 cells/ml; read-out: MIC", "description": "as §1\n(§5) In vivo antibacterial activity was determined against three bacterial infections (S. aureus Smith, E. coli Juhl and P. aeruginosa A9843A) by intramuscular administration to mice just after the bacterial challenge. PD50 values are summarized in Table 3 in comparsion with the MIC values against the corresponding organisms.\nas §2, §3, §4"}, "P. aeruginosa A9843A": {"system": "P. aeruginosa A9843A", "conditions": "Pseudomonas aeruginosa, A9843A, 18 h, pH 7.2", "description": "as §1, §5, §2, §3, §4"}, "S. aureus Smith": {"system": "S. aureus Smith", "conditions": "Staphylococcus aureus; S. aureus Smith; Mueller-Hinton agar pH 7.2; 32° C., 18 hr; 10^6 cells/ml; read-out: MIC", "description": "as §1, §5, §2, §3, §4"}}, "data": [{"smiles": "CO/N=C(\\C(=O)NC1C(=O)N2C(C(=O)O)=C(/C=C/Cn3cnc4cc(O)c(O)cc43)CS[C@H]12)c1csc(N)n1", "note": "(stereo partly shown) [Iu, 7-[(Z)-2-(2-aminothiazol-4-yl)-2-methoxyiminoacetamido]-3-[(E)-3-(5,6-dihydroxybenzimidazol-1-yl)-1-propen-1-yl]-3-cephem-4-carboxylic acid]", "values": [{"measurement": "MIC", "setting": "B. subtilis PCI 219", "result": 3.1, "unit": "µg/mL"}, {"measurement": "MIC", "setting": "C. freundii GN 7391", "result": 100, "unit": "µg/mL"}, {"measurement": "MIC", "setting": "C. terrigena IFO 12685", "result": 1.6, "unit": "µg/mL"}, {"measurement": "MIC", "setting": "E. cloacae IPM-12", "result": "> 100", "unit": "µg/mL"}, {"measurement": "MIC", "setting": "E. coli 255", "result": 0.8, "unit": "µg/mL"}, {"measurement": "MIC", "setting": "E. faecalis A9808", "result": 100, "unit": "µg/mL"}, {"measurement": "MIC", "setting": "E. faecium A24817", "result": "> 100", "unit": "µg/mL"}, {"measurement": "MIC", "setting": "K. pneumoniae PCI 602", "result": 0.05, "unit": "µg/mL"}, {"measurement": "MIC", "setting": "M. luteus 1001", "result": 0.8, "unit": "µg/mL"}, {"measurement": "MIC", "setting": "M. morgani 1510/9", "result": 0.4, "unit": "µg/mL"}, {"measurement": "MIC", "setting": "M. morgani 1510", "result": 25, "unit": "µg/mL"}, {"measurement": "MIC", "setting": "P. aeruginosa A20599", "result": 6.3, "unit": "µg/mL"}, {"measurement": "MIC", "setting": "P. aeruginosa IPM-8", "result": 25, "unit": "µg/mL"}, {"measurement": "MIC", "setting": "P. aeruginosa IPM-9", "result": 100, "unit": "µg/mL"}, {"measurement": "MIC", "setting": "P. aeruginosa KKA 19", "result": 100, "unit": "µg/mL"}, {"measurement": "MIC", "setting": "P. cepacia A21213", "result": "> 100", "unit": "µg/mL"}, {"measurement": "MIC", "setting": "P. cepacia No. 651", "result": "> 100", "unit": "µg/mL"}, {"measurement": "MIC", "setting": "P. mirabilis IFO-2849", "result": 0.1, "unit": "µg/mL"}, {"measurement": "MIC", "setting": "P. rettgeri IPM-14", "result": 0.8, "unit": "µg/mL"}, {"measurement": "MIC", "setting": "P. vulgaris IPM-13", "result": "> 100", "unit": "µg/mL"}, {"measurement": "MIC", "setting": "S. aureus 209P", "result": 6.3, "unit": "µg/mL"}, {"measurement": "MIC", "setting": "S. aureus 4-1015 (MRSA)", "result": 50, "unit": "µg/mL"}, {"measurement": "MIC", "setting": "S. aureus IPM-24 (MRSA)", "result": "> 100", "unit": "µg/mL"}, {"measurement": "MIC", "setting": "S. epidermidis 11-1230", "result": 50, "unit": "µg/mL"}, {"measurement": "MIC", "setting": "S. marcescens IPM-15", "result": "> 100", "unit": "µg/mL"}, {"measurement": "MIC", "setting": "S. marcescens IPM-16", "result": "> 100", "unit": "µg/mL"}, {"measurement": "MIC", "setting": "X. maltophilia GN 12873", "result": "> 100", "unit": "µg/mL"}, {"measurement": "MIC", "setting": "X. maltophilia No. 661", "result": "> 100", "unit": "µg/mL"}, {"measurement": "MIC", "setting": "E. coli Juhl A15119", "result": 0.2, "unit": "µg/mL"}, {"measurement": "MIC", "setting": "P. aeruginosa A9843A", "result": 6.3, "unit": "µg/mL"}, {"measurement": "MIC", "setting": "S. aureus Smith", "result": 6.3, "unit": "µg/mL"}]}]}
